Assay: Stability of cannabinoid compounds and Vitamin E components in Beverage 1 (AB White) by LCMSMS
Type: physicochemical
[1] = AB White stored at 8° C., 570 days
[2] = AB White stored at 21-25° C., 570 days

CCCCCc1cc(O)c2c(c1)OC(C)(C)[C@@H]1CCC(C)=C[C@@H]21 [D9 THC, delta-9-tetrahydrocannabinol, reference compound]
Stability of Plant-Derived Cannabinoid Compounds in AB White, 8° C. (AB White stored at 8° C., 0 days): 12.2 µg/mL
Stability of Plant-Derived Cannabinoid Compounds in AB White, 8° C. (AB White stored at 8° C., 1 days): 12.20 µg/mL
Stability of Plant-Derived Cannabinoid Compounds in AB White, 8° C. (AB White stored at 8° C., 2 days): 11.91 µg/mL
Stability of Plant-Derived Cannabinoid Compounds in AB White, 8° C. (AB White stored at 8° C., 3 days): 12.25 µg/mL
Stability of Plant-Derived Cannabinoid Compounds in AB White, 8° C. (AB White stored at 8° C., 5 days): 12.11 µg/mL
Stability of Plant-Derived Cannabinoid Compounds in AB White, 8° C. (AB White stored at 8° C., 8 days): 11.83 µg/mL
Stability of Plant-Derived Cannabinoid Compounds in AB White, 8° C. (AB White stored at 8° C., 9 days): 12.14 µg/mL
Stability of Plant-Derived Cannabinoid Compounds in AB White, 8° C. (AB White stored at 8° C., 10 days): 12.07 µg/mL
Stability of Plant-Derived Cannabinoid Compounds in AB White, 8° C. (AB White stored at 8° C., 11 days): 11.83 µg/mL
Stability of Plant-Derived Cannabinoid Compounds in AB White, 8° C. (AB White stored at 8° C., 12 days): 11.88 µg/mL
Stability of Plant-Derived Cannabinoid Compounds in AB White, 8° C. (AB White stored at 8° C., 15 days): 12.08 µg/mL
Stability of Plant-Derived Cannabinoid Compounds in AB White, 8° C. (AB White stored at 8° C., 16 days): 12.18 µg/mL
Stability of Plant-Derived Cannabinoid Compounds in AB White, 8° C. (AB White stored at 8° C., 17 days): 12.05 µg/mL
Stability of Plant-Derived Cannabinoid Compounds in AB White, 8° C. (AB White stored at 8° C., 18 days): 12.00 µg/mL
Stability of Plant-Derived Cannabinoid Compounds in AB White, 8° C. (AB White stored at 8° C., 19 days): 12.11 µg/mL
Stability of Plant-Derived Cannabinoid Compounds in AB White, 8° C. (AB White stored at 8° C., 22 days): 11.97 µg/mL
Stability of Plant-Derived Cannabinoid Compounds in AB White, 8° C. (AB White stored at 8° C., 23 days): 12.03 µg/mL
Stability of Plant-Derived Cannabinoid Compounds in AB White, 8° C. (AB White stored at 8° C., 24 days): 11.87 µg/mL
Stability of Plant-Derived Cannabinoid Compounds in AB White, 8° C. (AB White stored at 8° C., 25 days): 11.99 µg/mL
Stability of Plant-Derived Cannabinoid Compounds in AB White, 8° C. (AB White stored at 8° C., 26 days): 11.97 µg/mL
Stability of Plant-Derived Cannabinoid Compounds in AB White, 8° C. (AB White stored at 8° C., 29 days): 12.25 µg/mL
Stability of Plant-Derived Cannabinoid Compounds in AB White, 8° C. (AB White stored at 8° C., 30 days): 12.05 µg/mL
Stability of Plant-Derived Cannabinoid Compounds in AB White, 8° C. (AB White stored at 8° C., 60 days): 11.77 µg/mL
Stability of Plant-Derived Cannabinoid Compounds in AB White, 8° C. (AB White stored at 8° C., 90 days): 11.92 µg/mL
Stability of Plant-Derived Cannabinoid Compounds in AB White, 8° C. (AB White stored at 8° C., 120 days): 11.79 µg/mL
Stability of Plant-Derived Cannabinoid Compounds in AB White, 8° C. (AB White stored at 8° C., 150 days): 12.07 µg/mL
Stability of Plant-Derived Cannabinoid Compounds in AB White, 8° C. (AB White stored at 8° C., 180 days): 11.66 µg/mL
Stability of Plant-Derived Cannabinoid Compounds in AB White, 8° C. (AB White stored at 8° C., 210 days): 11.79 µg/mL
Stability of Plant-Derived Cannabinoid Compounds in AB White, 8° C. (AB White stored at 8° C., 240 days): 11.70 µg/mL
Stability of Plant-Derived Cannabinoid Compounds in AB White, 8° C. (AB White stored at 8° C., 270 days): 11.98 µg/mL
Stability of Plant-Derived Cannabinoid Compounds in AB White, 8° C. (AB White stored at 8° C., 300 days): 11.70 µg/mL
Stability of Plant-Derived Cannabinoid Compounds in AB White, 8° C. (AB White stored at 8° C., 330 days): 11.68 µg/mL
Stability of Plant-Derived Cannabinoid Compounds in AB White, 8° C. (AB White stored at 8° C., 360 days): 11.88 µg/mL
Stability of Plant-Derived Cannabinoid Compounds in AB White, 8° C. (AB White stored at 8° C., 390 days): 11.85 µg/mL
Stability of Plant-Derived Cannabinoid Compounds in AB White, 8° C. (AB White stored at 8° C., 420 days): 11.77 µg/mL
Stability of Plant-Derived Cannabinoid Compounds in AB White, 8° C. (AB White stored at 8° C., 450 days): 11.80 µg/mL
Stability of Plant-Derived Cannabinoid Compounds in AB White, 8° C. (AB White stored at 8° C., 480 days): 11.60 µg/mL
Stability of Plant-Derived Cannabinoid Compounds in AB White, 8° C. (AB White stored at 8° C., 510 days): 11.33 µg/mL
Stability of Plant-Derived Cannabinoid Compounds in AB White, 8° C. (AB White stored at 8° C., 540 days): 11.27 µg/mL
Stability of Plant-Derived Cannabinoid Compounds in AB White, 8° C. [1]: 11.21 µg/mL
stability over the entire period (in words) [1]: high degree of stability
Stability of Plant-Derived Cannabinoid Compounds in AB White, 21-25° C. (AB White stored at 21-25° C., 0 days): 12.2 µg/mL
Stability of Plant-Derived Cannabinoid Compounds in AB White, 21-25° C. (AB White stored at 21-25° C., 1 days): 11.8 µg/mL
Stability of Plant-Derived Cannabinoid Compounds in AB White, 21-25° C. (AB White stored at 21-25° C., 2 days): 12.0 µg/mL
Stability of Plant-Derived Cannabinoid Compounds in AB White, 21-25° C. (AB White stored at 21-25° C., 3 days): 11.9 µg/mL
Stability of Plant-Derived Cannabinoid Compounds in AB White, 21-25° C. (AB White stored at 21-25° C., 5 days): 12.1 µg/mL
Stability of Plant-Derived Cannabinoid Compounds in AB White, 21-25° C. (AB White stored at 21-25° C., 8 days): 12.3 µg/mL
Stability of Plant-Derived Cannabinoid Compounds in AB White, 21-25° C. (AB White stored at 21-25° C., 9 days): 11.8 µg/mL
Stability of Plant-Derived Cannabinoid Compounds in AB White, 21-25° C. (AB White stored at 21-25° C., 10 days): 11.7 µg/mL
Stability of Plant-Derived Cannabinoid Compounds in AB White, 21-25° C. (AB White stored at 21-25° C., 11 days): 12.1 µg/mL
Stability of Plant-Derived Cannabinoid Compounds in AB White, 21-25° C. (AB White stored at 21-25° C., 12 days): 11.9 µg/mL
Stability of Plant-Derived Cannabinoid Compounds in AB White, 21-25° C. (AB White stored at 21-25° C., 15 days): 12.1 µg/mL
Stability of Plant-Derived Cannabinoid Compounds in AB White, 21-25° C. (AB White stored at 21-25° C., 16 days): 12.1 µg/mL
Stability of Plant-Derived Cannabinoid Compounds in AB White, 21-25° C. (AB White stored at 21-25° C., 17 days): 11.9 µg/mL
Stability of Plant-Derived Cannabinoid Compounds in AB White, 21-25° C. (AB White stored at 21-25° C., 18 days): 11.8 µg/mL
Stability of Plant-Derived Cannabinoid Compounds in AB White, 21-25° C. (AB White stored at 21-25° C., 19 days): 12.3 µg/mL
Stability of Plant-Derived Cannabinoid Compounds in AB White, 21-25° C. (AB White stored at 21-25° C., 22 days): 11.9 µg/mL
Stability of Plant-Derived Cannabinoid Compounds in AB White, 21-25° C. (AB White stored at 21-25° C., 23 days): 12.0 µg/mL
Stability of Plant-Derived Cannabinoid Compounds in AB White, 21-25° C. (AB White stored at 21-25° C., 24 days): 12.1 µg/mL
Stability of Plant-Derived Cannabinoid Compounds in AB White, 21-25° C. (AB White stored at 21-25° C., 25 days): 12.3 µg/mL
Stability of Plant-Derived Cannabinoid Compounds in AB White, 21-25° C. (AB White stored at 21-25° C., 26 days): 12.1 µg/mL
Stability of Plant-Derived Cannabinoid Compounds in AB White, 21-25° C. (AB White stored at 21-25° C., 29 days): 11.9 µg/mL
Stability of Plant-Derived Cannabinoid Compounds in AB White, 21-25° C. (AB White stored at 21-25° C., 30 days): 11.9 µg/mL
Stability of Plant-Derived Cannabinoid Compounds in AB White, 21-25° C. (AB White stored at 21-25° C., 60 days): 11.9 µg/mL
Stability of Plant-Derived Cannabinoid Compounds in AB White, 21-25° C. (AB White stored at 21-25° C., 90 days): 12.0 µg/mL
Stability of Plant-Derived Cannabinoid Compounds in AB White, 21-25° C. (AB White stored at 21-25° C., 120 days): 11.7 µg/mL
Stability of Plant-Derived Cannabinoid Compounds in AB White, 21-25° C. (AB White stored at 21-25° C., 150 days): 11.7 µg/mL
Stability of Plant-Derived Cannabinoid Compounds in AB White, 21-25° C. (AB White stored at 21-25° C., 180 days): 11.9 µg/mL
Stability of Plant-Derived Cannabinoid Compounds in AB White, 21-25° C. (AB White stored at 21-25° C., 210 days): 11.4 µg/mL
Stability of Plant-Derived Cannabinoid Compounds in AB White, 21-25° C. (AB White stored at 21-25° C., 240 days): 11.7 µg/mL
Stability of Plant-Derived Cannabinoid Compounds in AB White, 21-25° C. (AB White stored at 21-25° C., 270 days): 11.9 µg/mL
Stability of Plant-Derived Cannabinoid Compounds in AB White, 21-25° C. (AB White stored at 21-25° C., 300 days): 12.0 µg/mL
Stability of Plant-Derived Cannabinoid Compounds in AB White, 21-25° C. (AB White stored at 21-25° C., 330 days): 11.4 µg/mL
Stability of Plant-Derived Cannabinoid Compounds in AB White, 21-25° C. (AB White stored at 21-25° C., 360 days): 11.7 µg/mL
Stability of Plant-Derived Cannabinoid Compounds in AB White, 21-25° C. (AB White stored at 21-25° C., 390 days): 11.4 µg/mL
Stability of Plant-Derived Cannabinoid Compounds in AB White, 21-25° C. (AB White stored at 21-25° C., 420 days): 11.7 µg/mL
Stability of Plant-Derived Cannabinoid Compounds in AB White, 21-25° C. (AB White stored at 21-25° C., 450 days): 11.7 µg/mL
Stability of Plant-Derived Cannabinoid Compounds in AB White, 21-25° C. (AB White stored at 21-25° C., 480 days): 11.2 µg/mL
Stability of Plant-Derived Cannabinoid Compounds in AB White, 21-25° C. (AB White stored at 21-25° C., 510 days): 11.2 µg/mL
Stability of Plant-Derived Cannabinoid Compounds in AB White, 21-25° C. (AB White stored at 21-25° C., 540 days): 11.2 µg/mL
Stability of Plant-Derived Cannabinoid Compounds in AB White, 21-25° C. [2]: 11.2 µg/mL
stability over the entire period (in words) [2]: high degree of stability

Source: patent publication US20260130395A1, “Water Dispersible Botanical Compositions” (Aquila Black Limited, priority 2021, published 2026)
